The values below come from US20220249596A1, “PIC1 PEPTIDE COMPOSITIONS AND METHODS OF USE THEREOF FOR TREATMENT OF HYPOXIC ISCHEMIC ENCEPHALOPATHY” (REALTA HOLDINGS, LLC, priority 2019, published 2022).

Entries after “also recorded” stand apart in the source; their conditions may differ. No end group written: not given here.

Type in all cases: in vivo, rat
The nature of assay [1]: Beam balance test (tapered/ledged beam). The following applies: six weeks after surgery. On the procedure:
No other preparation was needed. The thawed tubes were kept on ice until dosing.
Six weeks after surgery, the sensory motor functions of forelimbs and hindlimbs were tested using tapered/ledged beam (Zhao et al., Behav. Brain Res. 156 (2005), 85-94). The shape of the beam was square. The rats were pre-trained for 3 days to traverse the beam. The beam-walking apparatus consists of a horizontal 160 cm tapered (square) beam with underhanging ledges on each side to permit foot faults without falling. The end of the beam was connected to a black box (20.5 cm×25 cm×25 cm) with a platform at the starting point. A bright light was placed above the start point to motivate the rats to traverse the beam. The rats' performance was videotaped and were analyzed by calculating the slip ratio of the impaired (contralateral to lesion) forelimb and hindlimb (number of slips/number of total steps). Steps onto the ledge were scored as a full slip and a half slip was given if the limb touched the side of the beam. Also, the walking/running time on the beam were measured. The mean of three trials were used for statistical analyses. Analysis was carried out by an observer blind to the experimental groups.

Assay [2] relates to brain lesion after hypoxia/ischemia. In words: T2 MRI for brain tissue viability, lesion volume and edema. On the procedure:
Neonatal hypoxia/ischemia was induced in Wistar rat pups (age of 10±1 days, P10) according to Rice et al. (1981) and with modifications. Rat pups were anesthetized with 5% isoflurane (in 70% N2O and 30% O2; flow 300 ml/min). During the operation the concentration of anesthetic was reduced to 1.0-1.5% to maintain adequate level of anesthesia. The rectal temperature was maintained at 37.0±1.5° C. with a homeothermic blanket system (Harvard Apparatus, UK). Just before first incision, pups received buprenorphine 0.03 mg/kg i.p. After midline skin incision, the right common carotid artery (CCA) was exposed and permanently ligated distal from the carotid bifurcation. Thereafter the wound was closed, disinfected, and the animals were allowed to recover from anesthesia for 1 hour before subjecting them to hypoxic conditions. Pups were carefully monitored for possible post-surgical complications. An additional dose of buprenorphine 0.03 mg/kg was administered s.c. twice a day during the first 48 hours post-surgery.
Therma-treatment (6 hours) was started 1 hour post-hypoxia, to maintain normothermia (36+/−1° C. rat internal temperature) or hypothermia (31° C.+/−1 rat internal temperature), as follows. After CCA ligation, suturing and recovery for 1 h, pups were placed into chamber submerged to heated (+37° C.) water bath. Chamber was ventilated with heated (gas lines submerged to +37° C. water) mixture of 8% O2/92% N2 while pups were subjected to hypoxia. During the hypoxia period, chamber inner temperature was monitored. Pups were kept under hypoxic conditions for 60 minutes, except in group 5. In all pups the rectal temperature was monitored to ensure normothermic body temperature during hypoxia exposure. Rectal temperature after the H/I period was measured and recorded at the end of the exposure.
No other preparation was needed. The thawed tubes were kept on ice until dosing. […]
Brain tissue viability was performed as follows. Lesion T2 and Control T2 values (in milliseconds) were measured at 24 hours and 21 days after H/I, and the data are shown as average. […]

Assay [3] relates to C1q. In words: Systemic C1q level in plasma, fluorescent immunoassay. The following applies: 8, 12 and 24 hours after initial insult, P<0.05. On the procedure:
The local and systemic effects of NT, HT and PIC1 treatment on the complement cascade were measured. CNS C1q levels and systemic C1q and C5a levels were measured using a fluorescent immunoassay.
Systemic C1q and C5a levels were measured as follows. 100 μl of 1:5 plasma in 1×PBS was added to the wells of a plate described above and incubated overnight at 4° C. The plates were washed 3 times with PBST and blocked with NDS or NGS for one hour. Samples were probed with either 1:50 goat anti-human C1q (Complement Technology) in NDS or 1:200 mouse anti-human C5a (Human Complement Component C5a DuoSet ELISA, R&D Systems, Inc., Minneapolis, Minn.) in NGS for one hour at RT. The wells were washed and 1:500 donkey anti-goat 488 (Life Technologies) in NDS or 1:500 goat anti-mouse AF 568 (Life Technologies) in NGS was added, and incubated for one hour at RT. The wells were washed and the plate read using a Synergy HT (BioTek). Systemic C3a levels in plasma (1:20 dilution) were measured using a standard ELISA, according to the manufacturer's instructions (Rat C3a ELISA Kit, TSZ ELISA, Waltham, Mass.).

Consider “IALILEPICCQERAA-dPEG24 (cysteine pairing not given here) [PIC1]”, for which, in assay [1] (between study groups), the “beam balance: hind paw slips” value is reported as “No differences”. Also, the “beam balance: front paw slips” value in assay [1] (pooled genders and males, versus H/I+normo, p<0.05) is “fewer front paw slips”. Moreover, in assay [2] (24 hours, pooled genders, H/I+PIC1+hypo versus H/I+hypo, p<0.05), the “lesion volume in MRI” value is listed as “reduction; also recorded: significant difference”. The “edema (%) in MRI” value in assay [2] (21 days, pooled genders, H/I+PIC1+normo versus H/I+hypo, p<0.01) is “reduction”. Besides, the “control T2 value” in assay [2] (contralateral cortex, between study groups, pooled or separated genders) is reported as “no changes; also recorded: No statistical significances”. The “C1q levels in plasma, NT animals relative to PIC1-treated animals” value in assay [3] is listed as “significantly higher”.
